Data set [1] can be described thus: Metabolic stability in mouse liver microsomes. The settings on record: for half-life at 2 μM: 0.5 mg protein/ml, 2.0 uM compound, 1.0 mM NADPH, read-out: MLM t1/2. It counts as in vitro ADME. The method, then:
(§1) The samples were collected at specific time points, 0, 30, and 60 min, in duplicate. The reactions were terminated by adding an equivalent volume of ice-cold methanol and vortexed. […] Three microliters […] of the supernatant was analyzed by UHPLC-Q Exactive Orbitrap MS (Thermo Fisher Scientific) equipped with 50-mm × 4.6-mm column (XDB C-18; Agilent Technologies). The column temperature was maintained at 40 °C. The flow rate was at 0.3 mL/min with a 30% mobile phase (acetonitrile containing 0.1% formic acid). Q Exactive MS was operated in positive mode with electrospray ionization. Ultrapure nitrogen was applied as the sheath (45 arbitrary units), auxiliary (10 arbitrary units), sweep (1.0 arbitrary unit), and the collision gas. […] Mass Spectrometry (MS) data were acquired from 80 to 1,200 Da in profile mode.

Data set [2] is described as follows: Metabolic stability in human liver microsomes. It counts as in vitro ADME. The settings on record: for half-life at 2 μM: 0.5 mg protein/ml, 2.0 uM compound, 1.0 mM NADPH, read-out: HLM t1/2. The method, then: as §1
The target of another data set is SARS-CoV-2 M^pro-His6 (Severe acute respiratory syndrome coronavirus 2, UniProt P0DTD1). Description: M^pro-His6 enzyme inhibition assay, fluorescent peptide reporter. The class given is biochemical. To be noted: for M^pro inhibitory activity (in words): analogs compared with CDD-1713.
The target in another data set is SARS-CoV-2 M^pro (Severe acute respiratory syndrome coronavirus 2, UniProt P0DTD1). Kind of data set: M^pro (His tag removed) enzyme inhibition assay, fluorescent peptide reporter. It counts as biochemical. The settings on record: Table S1, 25 nM enzyme, 15 µM fluorescent peptide, Morrison equation, SE from triplicates.
Data set [3] concerns SARS-CoV-2 main protease (M^pro). Kind of data set: Protein thermal shift stability assay (thermofluor). It counts as binding. To be noted: 1.5 μM protease, various compound concentrations, SYPRO Orange. As for the experimental part: The dye SYPRO Orange (Thermo Fisher Scientific) was used to perform the protein thermal shift assay. The assay was set up on a 384-well Roche plate where the SARS-CoV-2 main protease at a concentration of 1.5 μM was incubated with the test compound at various concentrations and SYPRO Orange dye at 5× in a 10 μL reaction. The melting curve experiment and data analysis were run on a Roche Lightcycler 480 real-time PCR instrument.
(In general: Differential scanning fluorimetry follows unfolding on heating by fluorescence.)

Data set [4] has as its system SARS-CoV-2 (USA_WA1/2020 isolate). Kind of data set: RTCA assay for in vitro inhibition of SARS-CoV-2 replication in VERO E6 cells. It counts as cell-based. To be noted: live SARS-CoV-2, 75 h.
A short description of data set [5]: Plasma stability assay, mouse plasma. The class given is in vitro ADME. The settings on record: 10 µM, 37 °C, after 2-h incubation. As for the experimental part:
(§2) Compound CDD-1713 and CDD-1976 were incubated in human and mouse plasma, respectively, at a concentration of 10 µM in duplicate (n = 2) at 37 °C. At time points of 0, 30, 60, and 120 min, 15 µL of sample were taken out and the reactions terminated by adding 75 µL of ice-cold methanol. The reaction mixtures were then vortexed for 30 s and centrifuged at rcf 15,000 for 15 min. Following centrifugation, 3 μL of the supernatant was analyzed using UHPLC-Q Exactive Orbitrap MS. The percentage of test compound remaining at the individual time points relative to the 0-min sample was then determined.

Data set [6] can be described thus: Plasma stability assay, human plasma. To be noted: 10 µM, 37 °C, after 2-h incubation. The class given is in vitro ADME. The method, then: as §2
Data set [7] is described as follows: HepG2 cytotoxicity assay (XTT). It counts as cell-based. To be noted: human, HepG2 cells, 100 µM group, XTT, normalized to DMSO, read-out: HepG2 cell viability. The method, then:
(§3) The HepG2 cells maintained in DMEM (containing 1 g/L glucose, 10% fetal bovine serum [FBS], and 1% penicillin/streptomycin) were seeded in a 12-well plate (a final density of 5 × 10^5 per well) for cell uptake assay and 96-well plate for cytotoxicity assay (a final density of 5 × 10^4 per well). The plate was incubated at 37 °C for 24 h.
(§4) The cells in 96-well plate were treated by CDD-1713 or CDD-1976 at the final concentrations of 0, 10, 20, 50, or 100 μM (n = 3 replicates per concentration level per drug). After 24-h incubation at 37 °C, the medium in the plate was decanted and 100 μL of Dulbecco’s modified Eagle’s medium (DMEM) (without phenol red) was added into each well. The cell variability was measured using XTT method. The absorbance at 475 nm was read with a Tecan M1000 pro machine, with a reference wavelength of 660 nm. The reading was normalized by vehicle with final 0.5% dimethyl sulfoxide (DMSO) for each drug.
Background: Formazan colour is commonly taken as a measure of viable cells.

The test system of data set [8] is HepG2 cells. Kind of data set: HepG2 cytotoxicity assay (XTT). It counts as cell-based. The settings on record: 24 h. The method, then:
as §3, §4

Data set [9] concerns HepG2 cells. Description: HepG2 cell uptake assay. It counts as in vitro ADME. The settings on record: 10 μM, 2 h, 37 °C. As for the experimental part:
as §3
The cells in 12-well plate were treated with CDD-1713 or CDD-1976 (final concentration: 10 μM). The plate was incubated at 37 °C for another 2 h. The medium in the plate was decanted and the cells were rinsed with 1 mL of 1× DPBS three times, then 0.5 mL of 0.25% trypsin was added to each well and incubated for 3.5 min (at 37 °C). One milliliter of complete medium was added to each well to quench the reaction. After spinning at 350 × g for 5 min, the cell pellet was reconstituted in MeOH/H2O (vol/vol 1/1) and CDD-1713 or CDD-1976 was extracted from 100 μL of the resulting mixture with 100 μL of ice-cold methanol. The mixtures were centrifuged at rcf 15,000 for 15 min. Three microliters of the supernatant was analyzed by UHPLC-Q Exactive Orbitrap MS (Thermo Fisher Scientific) equipped with a 50-mm × 4.6-mm column (XDB C-18; Agilent Technologies). The column temperature was set at 40 °C. Ultrapure nitrogen was applied as the sheath (45 arbitrary units), auxiliary (10 arbitrary units), sweep (1.0 arbitrary unit), and the collision gas. […]

Where [10] appears, read: read-out: Ki against M^pro (Fig. 2; Fig. 2B M^pro-His-tag), 25 nM enzyme, 15 µM fluorescent peptide, Morrison equation, inactive = less than 90% inhibition at 25 µM.
Setting [11] is: read-out: Mpro-His Ki, Table S1, 25 nM enzyme, 15 µM fluorescent peptide, Morrison equation, SE from triplicates.
[12] abbreviates: Table S1, 25 nM enzyme, 15 µM fluorescent peptide, Morrison equation, SE from triplicates.

Each structure is given as a SMILES string. “Also recorded” adds a separate entry of the source. Where two headings read alike, the source gives them in different places.

`Cc1nnc2n1-c1ccc(Cl)cc1C(c1ccccc1)=NC2` [Alprazolam, reference compound]: the half-life at 2 μM in data set [1] amounted to 4.93 h; in [2] it was 13.9 h.

Consider `COc1cc(-c2cccc3[nH]ncc23)cc(C=O)c1OCC(=O)N1CCC(Oc2cccc(C(=O)N(C)C)c2)C1` (stereo not drawn) [CDD-1714], for which the Ki – broadly, a measure of affinity in units of concentration, obtained from inhibition or displacement – is 20 nM on SARS-CoV-2 M^pro-His6, 20 ± 3 nM on SARS-CoV-2 M^pro-His6 (setting [10]), 20 ± 3 nM on SARS-CoV-2 M^pro-His6 (setting [11]) and 24 ± 3 nM at SARS-CoV-2 M^pro (read-out: Mpro Ki). Further, the “stabilization of M^pro (temperature shift)” value in [3] was “stabilized; also recorded: concentration-dependent stabilization”.

In the case of `COc1cc(-c2cccc3[nH]ncc23)cc(CO)c1OCC(=O)N(C)C` [CDD-1776], at SARS-CoV-2 M^pro-His6 (setting [12]), the “Mpro-His Ki” value is recorded as “Inactive”. The “M^pro inhibitory activity (in words)” value on SARS-CoV-2 M^pro-His6 is reported as “completely abolished the activity”. The “Mpro Ki” value on SARS-CoV-2 M^pro is “Inactive”.

As to `COc1cc(-c2cccc3[nH]ncc23)ccc1OCC(=O)N(C)C` [CDD-1793], at SARS-CoV-2 M^pro-His6 (setting [12]), the “Mpro-His Ki” value is given as “Inactive”. Moreover, on SARS-CoV-2 M^pro-His6, the “M^pro inhibitory activity (in words)” value is “completely abolished the activity”. Further, the “Mpro Ki” value on SARS-CoV-2 M^pro is on record as “Inactive”.

As to `COc1cc(-c2cccc3c2cnn3C)cc(C=O)c1OCC(=O)N(C)C` [CDD-1847], at SARS-CoV-2 M^pro-His6 (setting [12]), the “Mpro-His Ki” value is recorded as “Inactive”. Moreover, the “M^pro inhibitory activity (in words)” value at SARS-CoV-2 M^pro-His6 was “completely lost activity”. For the same molecule, the “effect on SARS-CoV-2 induced cell death (in words)” value in data set [4] is “unable to prevent cell death”. In addition, in data set [4] (duplicates), the “IC50, SARS-CoV-2 induced cell death (normalized cell index, RTCA)” value is “inactive”. The “Mpro Ki” value at SARS-CoV-2 M^pro is reported as “Inactive”.

Regarding `COc1cc(-c2cccc3[nH]ncc23)cc(C(C)=O)c1OCC(=O)N(C)C` [CDD-1883], the “Mpro-His Ki” value at SARS-CoV-2 M^pro-His6 (setting [12]) is listed as “Inactive”. Further, the “Mpro Ki” value at SARS-CoV-2 M^pro was “Inactive”.

Consider `COc1cc(-c2cccc3[nH]ncc23)cc(C(=O)CO)c1OCC(=O)N(C)C` [CDD-1886], for which, at SARS-CoV-2 M^pro-His6 (setting [12]), the “Mpro-His Ki” value was “Inactive”. At SARS-CoV-2 M^pro, the “Mpro Ki” value is given as “Inactive”.

On to `CCOC(=O)/C=C/c1cc(-c2cccc3[nH]ncc23)cc(OC)c1OCC(=O)N(C)C` [CDD-1971], for which, on SARS-CoV-2 M^pro-His6 (setting [12]), the “Mpro-His Ki” value is on record as “Inactive”. At SARS-CoV-2 M^pro, the “Mpro Ki” value was “Inactive”.

`CN(C)C(=O)COc1ccc(-c2cccc3[nH]ncc23)cc1C=O` [CDD-1976]: the “compound remained in mouse plasma” value in [5] came to 80%. For the same molecule, on SARS-CoV-2 M^pro-His6, the Ki was found to be 37 nM and the “M^pro inhibitory activity (in words)” value was “better inhibition compared to CDD-1713”. The Ki on SARS-CoV-2 M^pro-His6 (setting [10]) came out at 37 ± 4 nM. At SARS-CoV-2 M^pro-His6 (setting [11]), the Ki amounted to 37 ± 4 nM. For the same molecule, in [6], the “compound remained in human plasma” value is 80%. In addition, the “effect on SARS-CoV-2 induced cell death (in words)” value in data set [4] is listed as “reduced cell death in a dose-dependent manner”. Besides, in [3], the “stabilization of M^pro (temperature shift)” value is “stabilized; also recorded: concentration-dependent stabilization; also recorded: most pronounced temperature shift”. Also, in data set [1], the “metabolic stability in mouse liver microsomes (in words)” value is reported as “more stable in human liver microsomes, but not mouse” and the half-life at 2 μM turned out to be 0.17 h. Further, in [2], the “metabolic stability in human liver microsomes (in words)” value is “more stable” and the half-life at 2 μM was 0.69 h. For the same molecule, the viability (usually a per cent measure of how many cells are alive, often set against a control) at 24 h, 100 µM in [7] is over 80%. The “cytotoxicity in HepG2 cells (in words)” value in the data set with HepG2 cells [8] (100 μM) was “no obvious cytotoxicity”. Further, the IC50 (in general, the concentration that gives 50% inhibition) with HepG2 cells [8] (Homo sapiens, HepG2, XTT assay, read-out: IC50, HepG2 cell viability) is over 100000 nM. Moreover, in the data set on HepG2 cells [9], the “cell permeability in uptake assay of HepG2 cells” value is “moderate cell permeability”.

As for `CN(C)C(=O)COc1ccc(-c2cccc3[nH]ncc23)cc1C#N` [CDD-2038], the “Mpro-His Ki” value on SARS-CoV-2 M^pro-His6 (setting [12]) was “Inactive”. Also, the “Mpro Ki” value at SARS-CoV-2 M^pro was “Inactive”.

For the origin of these results see article PMC8433497, “DNA-encoded chemistry technology yields expedient access to SARS-CoV-2 M^pro inhibitors” (Proceedings of the National Academy of Sciences of the …, 2021).
